Where a SMILES comes first, the peptide text is derived from it. Bridges are numbered along the chain shown (N, C = ends). [ ]: non-standard residue; d: D form. The star is where a group is joined. X1 = NC[C@@H](CC(=O)*)c1cccc(Cl)c1; Dab = NCC[C@H](N)C(=O)O; Dap = NC[C@H](N)C(=O)O
How the values were obtained:
[1] = test system: K. pneumoniae ATCC 10031 (SEN) and K. pneumoniae ATCC 700603 (MDR); assay: microbe, parasite or virus in culture; format: cell-based, Klebsiella pneumoniae; conditions: for MIC: across three biological replicates
Procedure, shortened: (§1)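 Broth microdilution in cation-adjusted Mueller-Hinton Broth 2 (except SCH79797), 11 to 16-step serial dilutions, inoculum 5 × 10^5 cells per mL. Plates shaken at 37 °C for 18 hours, 2 replicates. MIC taken as lowest concentration giving complete growth inhibition, OD600 < 0.05; relative MIC = MICevolved/MICancestor.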

[2] = test system: P. aeruginosa ATCC BAA-3107 (SEN) and P. aeruginosa LESB58 (MDR); assay: microbe, parasite or virus in culture; format: cell-based, Pseudomonas aeruginosa; conditions: for MIC of ancestor: ancestor strain; for MIC: across three biological replicates
Procedure, shortened: as §1

[3] = test system: K. pneumoniae ATCC 10031 (SEN) and K. pneumoniae ATCC 700603 (MDR); assay: Adaptive laboratory evolution (ALE), relative MIC of evolved lines; format: cell-based, Klebsiella pneumoniae
Procedure, shortened: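 Ten parallel populations per antibiotic–ancestor pair were evolved in MHB at 37 °C, starting near 50% growth-inhibiting drug. Every 72 h they were passaged into 0.5–2.5× increasing concentrations, keeping the highest-drug well with OD600 > 0.2.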

[4] = KP-MDR (Klebsiella pneumoniae ATCC 700603), evolved line 2
[5] = KP-MDR (Klebsiella pneumoniae ATCC 700603), evolved line 4

CC(C)C[C@@H]1NC(=O)[C@@H](Cc2ccccc2)NC(=O)[C@H](CCN)NC(=O)[C@@H](NC(=O)[C@H](CN)NC(=O)[C@@H](NC(=O)C[C@H](CN)c2cccc(Cl)c2)[C@@H](C)O)CCNC(=O)[C@H]([C@@H](C)O)NC(=O)[C@H](CCN)NC(=O)[C@H](CCN)NC1=O [SPR206] (X1-T[Dap][Dab][Dab][dF]L[Dab][Dab]T; lactam 3-C (inferred); N-terminus assumed)
MIC of ancestor ([1]; Klebsiella pneumoniae ATCC 10031 (KP-SEN), ancestor strain, sheet fig 2a): 0.5 µg/mL
MIC ([1]; Klebsiella pneumoniae ATCC 10031 (KP-SEN)): 0.5 µg/mL
MIC of ancestor ([1]; Klebsiella pneumoniae ATCC 700603 (KP-MDR), ancestor strain, sheet fig 2a): 0.5 µg/mL
MIC ([1]; Klebsiella pneumoniae ATCC 700603 (KP-MDR)): 0.5 µg/mL
MIC of ancestor ([1]; ancestor KP-MDR (Klebsiella pneumoniae ATCC 700603)): 0.5 µg/mL
MIC of ancestor ([1]; ancestor KP-SEN (Klebsiella pneumoniae ATCC 10031)): 0.5 µg/mL
MIC of ancestor ([2]; P. aeruginosa ATCC BAA 3107 (PA-SEN)): 1 µg/mL
MIC of ancestor ([2]; P. aeruginosa ATCC BAA 3107 (PA-SEN), sheet fig 2a): 1 µg/mL
MIC of ancestor ([2]; P. aeruginosa LESB 58 (PA-MDR)): 4 µg/mL
MIC of ancestor ([2]; P. aeruginosa LESB 58 (PA-MDR), sheet fig 2a): 4 µg/mL
MIC ([2]; Pseudomonas aeruginosa ATCC BAA-3107 (PA-SEN)): 1 µg/mL
MIC ([2]; Pseudomonas aeruginosa LESB 58 (PA-MDR)): 4 µg/mL
Relative MIC ([3]; ALE, K. pneumoniae ATCC 700603 (KP-MDR), evolved line 7): 512
Relative MIC ([3]; ALE, K. pneumoniae ATCC 700603 (KP-MDR), evolved line 8): 1024
Relative MIC ([3]; ALE, K. pneumoniae ATCC 700603 (KP-MDR), evolved line 9): 1024
Relative MIC ([3]; ALE, K. pneumoniae ATCC 700603 (KP-MDR), evolved line 10): 512
Relative MIC ([3]; ALE, Klebsiella pneumoniae ATCC 10031 (KP-SEN), evolved line 1): 2048
Relative MIC ([3]; ALE, Klebsiella pneumoniae ATCC 10031 (KP-SEN), evolved line 2): 2
Relative MIC ([3]; ALE, Klebsiella pneumoniae ATCC 10031 (KP-SEN), evolved line 3): 2048
Relative MIC ([3]; ALE, Klebsiella pneumoniae ATCC 10031 (KP-SEN), evolved line 4): 2048
Relative MIC ([3]; ALE, Klebsiella pneumoniae ATCC 10031 (KP-SEN), evolved line 6): 2048
Relative MIC ([3]; ALE, Klebsiella pneumoniae ATCC 10031 (KP-SEN), evolved line 7): 2
Relative MIC ([3]; ALE, Klebsiella pneumoniae ATCC 10031 (KP-SEN), evolved line 8): 2
Relative MIC ([3]; ALE, Klebsiella pneumoniae ATCC 10031 (KP-SEN), evolved line 10): 2048
Relative MIC ([3]; ALE, Klebsiella pneumoniae ATCC 700603 (KP-MDR), evolved line 1): 256
Relative MIC ([3]; ALE, Klebsiella pneumoniae ATCC 700603 (KP-MDR), evolved line 2): 1024
Relative MIC ([3]; ALE, Klebsiella pneumoniae ATCC 700603 (KP-MDR), evolved line 3): 512
Relative MIC ([3]; ALE, Klebsiella pneumoniae ATCC 700603 (KP-MDR), evolved line 4): 256
Relative MIC ([3]; ALE, Klebsiella pneumoniae ATCC 700603 (KP-MDR), evolved line 5): 256
Relative MIC ([3]; ALE, Klebsiella pneumoniae ATCC 700603 (KP-MDR), evolved line 6): 512
MIC of evolved line ([3]; KP-MDR (K. pneumoniae ATCC 700603), evolved line 1 of the given antibiotic): 128 µg/mL
Relative MIC ([3]; KP-MDR (K. pneumoniae ATCC 700603), evolved line 1 vs ancestor): 256
MIC of evolved line ([3]; KP-MDR (K. pneumoniae ATCC 700603), evolved line 2 of the given antibiotic): 512 µg/mL
Relative MIC ([3]; KP-MDR (K. pneumoniae ATCC 700603), evolved line 2 vs ancestor): 1024
MIC of evolved line ([3]; KP-MDR (K. pneumoniae ATCC 700603), evolved line 3 of the given antibiotic): 256 µg/mL
Relative MIC ([3]; KP-MDR (K. pneumoniae ATCC 700603), evolved line 3 vs ancestor): 512
MIC of evolved line ([3]; KP-MDR (K. pneumoniae ATCC 700603), evolved line 4 of the given antibiotic): 128 µg/mL
Relative MIC ([3]; KP-MDR (K. pneumoniae ATCC 700603), evolved line 4 vs ancestor): 256
MIC of evolved line ([3]; KP-MDR (K. pneumoniae ATCC 700603), evolved line 5 of the given antibiotic): 128 µg/mL
Relative MIC ([3]; KP-MDR (K. pneumoniae ATCC 700603), evolved line 5 vs ancestor): 256
MIC of evolved line ([3]; KP-MDR (K. pneumoniae ATCC 700603), evolved line 6 of the given antibiotic): 256 µg/mL
Relative MIC ([3]; KP-MDR (K. pneumoniae ATCC 700603), evolved line 6 vs ancestor): 512
MIC of evolved line ([3]; KP-MDR (K. pneumoniae ATCC 700603), evolved line 7 of the given antibiotic): 256 µg/mL
Relative MIC ([3]; KP-MDR (K. pneumoniae ATCC 700603), evolved line 7 vs ancestor): 512
MIC of evolved line ([3]; KP-MDR (K. pneumoniae ATCC 700603), evolved line 8 of the given antibiotic): 512 µg/mL
Relative MIC ([3]; KP-MDR (K. pneumoniae ATCC 700603), evolved line 8 vs ancestor): 1024
MIC of evolved line ([3]; KP-MDR (K. pneumoniae ATCC 700603), evolved line 9 of the given antibiotic): 512 µg/mL
Relative MIC ([3]; KP-MDR (K. pneumoniae ATCC 700603), evolved line 9 vs ancestor): 1024
MIC of evolved line ([3]; KP-MDR (K. pneumoniae ATCC 700603), evolved line 10 of the given antibiotic): 256 µg/mL
Relative MIC ([3]; KP-MDR (K. pneumoniae ATCC 700603), evolved line 10 vs ancestor): 512
Relative MIC ([3]; KP-MDR (Klebsiella pneumoniae ATCC 700603), evolved line 1): 256
Relative MIC [3, 4]: 1024
Relative MIC (log10) [3, 4]: 3.0103 log10
Relative MIC ([3]; KP-MDR (Klebsiella pneumoniae ATCC 700603), evolved line 3): 512
Relative MIC [3, 5]: 256
Relative MIC (log10) [3, 5]: 2.408 log10
